Columns and labels:
[1] = molecular target: T1, AKT1/PKBα (Homo sapiens, UniProt P31749); experiment: Akt1 enzyme inhibitory activity, AKT1/PKBα KinEASE FP Fluorescein Green Assay; type: biochemical; details: fluorescence polarization kit assay; read-out: Akt1 IC50 (grade)
T1 construct: purchased
Method: (§1) Compound AZD5363 (NCT02208375, NCT02208375, NCT01625286), which have entered the clinical phase II study, was used as a positive control, and the compound was assayed against common tumour cell lines (human ovarian cancer cell line OVCAR-8 and human colon cancer cell line HCT-116) by MTT assay, at the same time, the akt1 enzyme inhibitory activity (IC50) was evaluated using a commercial Akt1 kit.
2) Test method for the inhibitory activity of the compound of the present invention against Akt1 enzyme:
The AKT1/PKBα KinEASE™ FP Fluorescein Green Assay (Kinase Green Fluorescence Detection System) was used to detect the inhibitory activity of the compound on AKT1/PKBα.
Fluorescence polarization detection protein kinase B employs the principle of a competitive reaction: a fluorescently labeled phosphorylated tracer and an unlabeled phosphorylated product produced by the reaction of protein kinase B will compete with the anti-serine antibody for binding. In a reaction mixture […], when a part of the fluorescent tracer binds to the antibody, it causes a higher polarization value. However, in the reaction solution mixture containing the phosphorylated product, less tracer binds to the antibody (the fluorescent tracer was replaced from the antibody) and the emitted signal was depolarized. Therefore, the change in polarization was directly related to the activity of protein kinase B in the reaction.
The compound of the present invention and the positive control AZD5363 were dissolved in dimethyl sulfoxide (DMSO) and diluted to a concentration of 50 μM. At room temperature, 0.25 μl of the compound sample and the positive control at a concentration of 50 μM were taken and added to the 384-well plate, and three parallel wells were set for each sample, and then 10 μl of STK Substrate 3, Working Solution, 5 μl AKT1/PKBα Working Solution, 10 μl ATP Working Solution were added to each sample well plate with vibrating gently and shaking for a few minutes. The reaction starts after 10 μl of ATP Working Solution was added to the well, and the reaction was timed at room temperature for 1 hour. After one hour, 5 μl of STK Stop Mix and 5 μl of STK Antibody Mix were added to each well respectively to stop the reaction. After the addition completes, it was allowed to stand at room temperature for four hours, and the polarization value of the sample was detected by the fluorescence polarization of the microplate reader (it was effective to detect its signal within 24 hours), and the inhibition rate of the compound was calculated by the polarization value, and then IC50 was calculated.
Four sets of controls were set in the experiment, namely Buffer Control Wells, Tracer Control Wells, No Enzyme Wells, and a blank dimethyl sulfoxide control. The resulting data was used to calculate the inhibition rate.
The activity of the compound was divided into three grades according to the size of the IC50 of the Akt inhibitory activity: “+++”, 1 nM<IC50<10 nM; “++”, 10 nM<IC50<50 nM; “+”, 50 nM<IC50.

[2] = system: HGC27; experiment: Tumour cell proliferation inhibition, MTT assay, HGC27; type: cell-based, human
[3] = system: MCF-7; experiment: Tumour cell proliferation inhibition, MTT assay, MCF-7; type: cell-based, human
[4] = system: 786-O; experiment: Tumour cell proliferation inhibition, MTT assay, 786-O; type: cell-based, human; details: Homo sapiens, 786-0, 72 h
[5] = system: HCT-116; experiment: Tumour cell proliferation inhibition, MTT assay, HCT-116; type: cell-based, human
Method: as §1
1) The pharmacological test method for the tumour cell proliferation inhibiting activity of the compound of the present invention was as follows:
The first was the determination of in vitro tumour growth inhibitory activity and the preliminary structure-activity relationship study, and different solid tumour cell lines were used to determine the in vitro antitumour activity of the synthesized compounds.
Experimental materials: cell lines: human ovarian cancer cells (OVCAR8), colon adenocarcinoma cells (HCT-116),
Medium: OVCAR8: RPMI 1640+fetal calf serum
Drug preparation method: dissolving the drug in DMSO to make a 50 mM of stock solution, and diluting it to a certain ratio to obtain 5 different concentrations.
Tumour Cells being Cultured In Vitro:
The selected tumour cells were incubated in a, 5% of CO2 cell incubator at 37° C., and passaged until the cell density was 70 to 90% (the adherent cells were passaged with Duck's EDTA) and used for subsequent experiments.
The compound was dissolved in dimethyl sulfoxide (DMSO), diluted, and tumour cells were seeded into 4000 cells/200 μL/well in 96-well plates, and 1 μL of compound was added to each well to a final concentration of 50 μM, 10 μM, 2 μM, and 0.4 μM. 0.08 μM were incubated in a, 5% of CO2 cell incubator at 37° C. for 72 hours with DMSO (1%) as a blank control.
The calculation formula of the cell inhibition rate is: cell inhibition rate %=(control group OD value−drug group OD value)/control cell OD value×100%, and the half inhibition concentration (IC50) was determined by the Bliss method.

[6] = system: CEM-C1; experiment: Tumour cell proliferation inhibition, MTT assay, CEM-C1; type: cell-based, human; details: Homo sapiens, CEM/C1, 72 h
[7] = Oral pharmacokinetic experiment in SD rats; type: in vivo; details: oral administration
Method: […] The blood sampling times of the tail vein administered by intragastric administration were 0.25, 0.5, 1, 2, 4, 6, 8, 10, 24 hours; the times of blood collection by intravenous administration were 0.05, 0.1, 0.17, 0.5, 1, 2, 4, 6, 8, 10, 24 hours. 0.3 ml of whole blood was taken, and after centrifugation, 0.1 ml of plasma was taken and analysed by LC-MS.

[8] = rat, in vivo, 20 mg/kg, mean n = 3

T1 sequence (P31749 whole entry): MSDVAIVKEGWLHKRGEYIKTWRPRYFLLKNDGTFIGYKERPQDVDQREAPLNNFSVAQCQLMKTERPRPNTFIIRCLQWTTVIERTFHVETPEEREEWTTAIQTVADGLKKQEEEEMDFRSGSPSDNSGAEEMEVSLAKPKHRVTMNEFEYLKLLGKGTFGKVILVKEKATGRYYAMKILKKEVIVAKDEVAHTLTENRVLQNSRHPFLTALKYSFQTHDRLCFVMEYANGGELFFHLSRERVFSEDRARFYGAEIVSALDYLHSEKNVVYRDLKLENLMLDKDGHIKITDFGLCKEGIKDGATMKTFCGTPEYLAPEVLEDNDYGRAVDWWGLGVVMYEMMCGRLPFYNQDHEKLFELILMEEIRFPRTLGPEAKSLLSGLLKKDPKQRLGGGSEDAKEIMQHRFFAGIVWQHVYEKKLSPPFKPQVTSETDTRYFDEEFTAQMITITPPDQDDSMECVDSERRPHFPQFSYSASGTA

Row | Structure (SMILES) | IC50 [1] [nM] | IC50 ([2]; Homo sapiens, HGC-27, 72 h) [nM] | IC50 [6] [nM] | further results
1 | Cn1nccc1-c1ccc(C(=O)N[C@@H]2CNCC[C@H]2c2ccc(F)c(F)c2)c(F)c1 (racemic) [VII-32] | 1 to 10 | 60 | 70 | IC50 ([3]; Homo sapiens, MCF7, 72 h): 1980 nM; IC50 [4]: 910 nM; IC50 ([5]; Homo sapiens, HCT-116, 72 h): 980 nM
2 | Cn1nccc1-c1ccc(C(=O)N[C@H]2CNCC[C@@H]2c2ccc(F)c(F)c2)c(F)c1 [VII-1b, 4-(1-methyl-1H-pyrazole-yl)-N-((3R,4R)-(3,4-difluorophenyl)piperidin-3-yl)-2-fluorobenzamide] | 10 to 50 | – | – | –
3 | Cn1ncc(Cl)c1-c1ccc(C(=O)N[C@@H]2CNCC[C@H]2c2ccc(F)c(F)c2)c(F)c1 [VII-2, 4-(1-methyl-4-chloro-1H-pyrazole-yl)-N-((3S,4S)-(3,4-difluorophenyl)piperidin-3-yl)-2-fluorobenzamide] | 10 to 50 | 70 | – | –
4 | Cc1cnn(C)c1-c1ccc(C(=O)N[C@@H]2CNCC[C@H]2c2ccc(F)c(F)c2)c(F)c1 [VII-3, 4-(1,4-dimethyl-1H-pyrazole-yl)-N-((3S,4S)-4-(3,4-difluorophenyl)piperidin-3-yl)-2-fluorobenzamide] | 10 to 50 | 90 | 160 | –
5 | Cn1ncc(C2CC2)c1-c1ccc(C(=O)N[C@@H]2CNCC[C@H]2c2ccc(F)c(F)c2)c(F)c1 [VII-4] | > 50 | – | – | –
6 | Cn1ncc(Br)c1-c1ccc(C(=O)N[C@@H]2CNCC[C@H]2c2ccc(F)c(F)c2)c(F)c1 [VII-6, 4-(1-methyl-4-bromo-1H-pyrazole-yl)-N-((3S,4S)-(3,4-difluorophenyl)piperidin-3-yl)-2-fluorobenzamide] | 10 to 50 | 40 | 150 | –
7 | Cn1ncc(F)c1-c1ccc(C(=O)N[C@@H]2CNCC[C@H]2c2ccc(F)c(F)c2)c(F)c1 [VII-7] | 10 to 50 | 60 | 90 | IC50 ([3]; Homo sapiens, MCF7, 72 h): 2840 nM; IC50 [4]: 990 nM; IC50 ([5]; Homo sapiens, HCT-116, 72 h): 2390 nM
8 | Cn1nccc1-c1ccc(C(=O)N[C@@H]2CNCC[C@H]2c2c(F)c(F)cc(F)c2F)c(F)c1 [VII-9, 4-(1-methyl-1H-pyrazole-yl)-N-((3S,4S)-(2,3,5,6-tetrafluorophenyl)piperidin-3-yl)-2-fluorobenzamide] | 10 to 50 | 80 | 210 | –
9 | Cn1nccc1-c1cc(F)c(C(=O)N[C@@H]2CNCC[C@H]2c2ccc(F)c(F)c2)c(F)c1F [VII-13, 4-(1-methyl-1H-pyrazole-yl)-N-((3S,4S)-4-(3,4-difluorophenyl)piperidin-3-yl)-2,3,6-trifluorobenzamide] | > 50 | – | – | –
10 | Cn1nccc1-c1cc(F)c(C(=O)N[C@@H]2CNCC[C@H]2c2ccc(F)c(F)c2)c(Cl)c1 [VII-14] | 10 to 50 | 100 | 180 | –
11 | Cc1cc(-c2ccnn2C)cc(F)c1C(=O)N[C@@H]1CNCC[C@H]1c1ccc(F)c(F)c1 [VII-15, 4-(1-methyl-1H-pyrazole-yl)-N-((3S,4S)-4-(3,4-difluorophenyl)piperidin-3-yl)-2-methyl-6-fluorobenzamide] | > 50 | – | – | –
12 | Cn1nccc1-c1cc(F)c(C(=O)N[C@@H]2CNCC[C@H]2c2ccc(F)c(F)c2)c(C(F)(F)F)c1 [VII-16, 4-(1-methyl-1H-pyrazole-yl)-N-((3S,4S)-4-(3,4-difluorophenyl)piperidin-3-yl)-2-trifluoromethyl-6-fluorobenzamide] | 10 to 50 | 80 | 110 | –
13 | Cn1nccc1-c1ccc(C(=O)N[C@@H]2CNCC[C@H]2c2ccc(F)c(F)c2)c(F)c1F [VII-17, 4-(1-methyl-1H-pyrazole-yl)-N-((3S,4S)-4-(3,4-difluorophenyl)piperidin-3-yl)-2,3-difluorobenzamide] | 10 to 50 | 40 | 90 | –
14 | Cn1ncc(Cl)c1-c1ccc(C(=O)N[C@@H]2CNC[C@H]2c2ccc(F)c(F)c2)c(F)c1 [VII-19, 4-(1-methyl-4-chloro-1H-pyrazole-yl)-N-((3S,4R)-(3,4-difluorophenyl)pyrrolidin-3-yl)-2-fluorobenzamide] | 10 to 50 | 20 | 60 | –
15 | Cn1nccc1-c1cc(F)c(C(=O)N[C@@H]2CNC[C@H]2c2ccc(F)c(F)c2)c(F)c1 [VII-21, 4-(1-methyl-1H-pyrazole-yl)-N-((3S,4R)-(3,4-difluorophenyl)pyrrolidin-3-yl)-2,6-difluorobenzamide] | 10 to 50 | 80 | 150 | –
16 | Cn1nccc1-c1ccc(S(=O)(=O)N[C@@H]2CNCC[C@H]2c2ccc(F)c(F)c2)c(F)c1 [VII-23, N-((3S,4S)-4-(3,4-difluorophenyl)piperidin-3-yl)-2-fluoro-4-(1-methyl-1H-pyrazol-5-yl)benzenesulfonamide] | > 50 | – | – | –
17 | Cn1ncnc1-c1ccc(C(=O)N[C@@H]2CNCC[C@H]2c2ccc(F)c(F)c2)c(F)c1 [VII-26] | 10 to 50 | 70 | 70 | –
18 | CCn1nccc1-c1ccc(C(=O)N[C@@H]2CNCC[C@H]2c2ccc(F)c(F)c2)c(F)c1 [VII-27, 4-(1-ethyl-1H-pyrazole-yl)-N-((3S,4S)-4-(3,4-difluorophenyl)piperidin-3-yl)-2-fluorobenzamide] | 10 to 50 | 90 | 130 | –
19 | O=C(N[C@@H]1CNCC[C@H]1c1ccc(F)c(F)c1)c1ccc(-c2ccnn2C2CC2)cc1F [VII-28, 4-(1-cyclopropyl-1H-pyrazol-yl)-N-((3S,4S)-4-(3,4-difluorophenyl)piperidin-3-yl)-2-fluorobenzamide] | 10 to 50 | 50 | 100 | –
20 | [2H]C([2H])([2H])n1nccc1-c1ccc(C(=O)N[C@@H]2CNCC[C@H]2c2ccc(F)c(F)c2)c(F)c1 [VII-29, 4-(1-(methyl-d3)-1H-pyrazol-yl)-N-((3S,4S)-4-(3,4-difluorophenyl)piperidin-3-yl)-2 fluorobenzamide] | 10 to 50 | 40 | 60 | –
21 | Cn1nccc1-c1ccc(C(=O)N[C@@H]2CNCC[C@H]2c2ccc(F)c(F)c2)c(F)c1.O=C(O)C[C@H](O)C(=O)O [VII-30, L-malate] | 1 to 10 | – | 80 | IC50 ([2]; 72 hours, L-malate): 30 nM; IC50 ([3]; 72 hours, L-malate): 1580 nM; IC50 [4]: 550 nM; IC50 ([5]; 72 hours, L-malate): 1990 nM
22 | Cn1nccc1-c1ccc(C(=O)N[C@@H]2CNCC[C@H]2c2ccc(F)c(F)c2)c(F)c1.O=C(O)C(O)C(O)C(=O)O [VII-33] | – | – | – | 1/2 ([7]; 20 mg/kg, mean n = 3): 3.69 h; AUC0-inf ([7]; 20 mg/kg, mean n = 3): 2160 ng·h/mL; AUC0-t ([7]; 20 mg/kg, mean n = 3): 1950 ng·h/mL; improvement of AUC0-t over VII-1a ([7]; salt versus free form VII-1a): 30%; Cmax [7, 8]: 200 ng/mL; Tmax [7, 8]: 4 h

Reference: US11319300B2, “Polyfluoro-substituted aromatic heterocyclic derivative, pharmaceutical composition containing same, and applications thereof” (ZHEJIANG UNIVERSITY, priority 2017, dated 2022)
